In paper PMC6982022 (International Journal of Molecular Sciences, 2019):
Like-named read-outs stand apart in the source and are kept apart here.

Tests used:
C57BL6J mice = assay: Epididymal sperm acrosome morphology (FITC-PSA staining) after 35 days oral dosing; format: in vivo, mouse; conditions: for Sperm morphology Abnormal, average (%) / Sperm morphology Normal, average (%): six mice/group
Description: Groups of six mice, each, were used for three different doses of NB-DNJ or NB-DGJ formulated in milliQ water at 50 mg/kg, 25 mg/kg and 15 mg/kg, respectively. Control groups were given an equivalent volume of water. Animals were given compound or control once daily for 35 consecutive days via oral gavage using animal feeding needles (Biomedical Needles, Popper, NY, USA). Body weight was noted every week for all treatment groups. Mice were euthanized at the end of a 35 days dosing regimen using CO2 asphyxia followed by cervical dislocation. Testes were harvested, weighed and stored in Bouin’s fixative for 48 h, then sliced into two halves, and stored in fresh Bouin’s for another 24 h. The tissue slices were then rinsed in 70% ethanol and processed and stained for histology using a standard protocol for Hematoxylin and eosin staining. Spermatids with elongated and abnormally shaped heads were counted per 20 fields and average number calculated for 6 mice/group.
For sperm retrieval, epididymis was removed from the animal and placed in Petri dish. One mL of capacitation buffer (Capacitation buffer consisted of 110 mM NaCl, 2.68 mM KCl, 0.36 mM NaH2PO4, 25 mM NaHCO3, 0.49 mM MgCl2, 2.40 mM CaCl2, 25 mM HEPES, 5.50 mM Glucose, 1 mM Pyruvic acid, pH 7.4; Tash and Bracho, 1998) at room temperature was added to the dish. Using forceps, the caput of the epididymis was held in place and the cauda sliced repeatedly with a razor blade. The spermatozoa were allowed to disperse for 15 min with gentle swirling intermittently. A 100 µL aliquot of the sperm suspension was dropped onto a standard glass microscope slide (Fisherbrand superfrost microscope slides 25 × 75 × 1.0 mm)) and smeared with side of pipette tip. The slides were air dried flat for 1 h at room temperature. The sperm smear was fixed in methanol for 2 min. The sperm smear was than stained using FITC-PSA (Fluorescein isothiocyanate Pisum Sativum Agglutinin; Vector Laboratories, Burlingame, CA) was diluted 1:7000 in PBS containing 1:10,000 DAPI dihydrochloride, FluoroPure™ grade, Invitrogen) (≥98% pure) to make the stock solution. To each slide, 100 µL of FITC-PSA was added and spread out with edge of pipette tip to cover the dried sperm smear. The slides were incubated at 37 °C for 10 min, and then washed with 5 changes of PBS for 5 min each. The slides were air-dried and mounted with 20 µL Vectashield mounting medium for fluorescence (Vector Laboratories, Burlingame, CA, USA) and observed. Slides were viewed on a Nikon IX-81 microscope under a 40× objective using FITC and DAPI filter to visualize acrosome morphology. The phase contrast images were also collected at the same magnification to compare morphological details.

[1] = Pharmacokinetic study, single oral bolus, plasma LC/MS/MS; format: in vivo, rat; conditions: male CD rats, single oral 150 mg/kg; for Cmax: male, CD, plasma, po, 150 mg/kg
Description: Four male CD rats (225–235 g) were purchased from Harlan (Indianapolis, IN, USA) with in-dwelling jugular cannulas and allowed to acclimate for 72 h in climate-regulated holding rooms in the University of Minnesota’s AAALAC-certified animal facilities. Standard rat chow and water were provided ad libitum throughout the study. NB-DGJ was formulated as described above to 33.75 mg/mL for in vivo administration. Rats were dosed orally by using a 15 G × 3” disposable gavage needle with a maximum volume of 5 mL/kg body weight. At various time points (0.083, 0.25, 0.5, 1, 2, 4, 8, 12, 24 and 48 h) following dosing, approximately 0.1 mL of blood was collected from each rat into BD Microtainer® with Lithium Heparin (Becton-Dickinson). Plasma was then isolated by allowing the samples to sit at room temperature for 30 min followed by microcentrifugation at 15,000× g for 5 min. Plasma samples were then stored at −70 °C until processing and analysis.
Frozen plasma samples were thawed on ice and processed by adding 2 volumes of 100% acetonitrile (containing 750 ng/mL miglitol (N-hydroxyethyl-1-deoxynojirimycin) as an internal standard) and vortexed. The samples were then incubated on ice for 1 h and then microcentrifuged at 15,000× g for 5 min. The cleared supernatants were then transferred to 12 × 32 mm glass vials with inserts (Thermo Scientific™ National™ Inserts for Target™ LoVial™ Wide-Opening Vials).
Processed samples were analyzed by LC/MS/MS using a previously published method. A standard curve consisting of normal rat plasma containing varying concentrations (1500, 500, 166.7, 55.6, 18.5, 6.2, 2.1, 0.7 and 0.22 ng/mL) of NB-DGJ was constructed and processed as described above. The analytical system was composed of a Quattro Ultima triple quadrupole MS/MS coupled with a Waters Acquity UPLC (Ultra Performance Liquid Chromatography). UPLC isocratic separation of analytes was performed using a Waters Atlantis Hilic 3 µm, 150 × 2.1 mm analytical column (Waters Corporation, Milford, MA, USA) maintained at 30 °C. The eluent was a mixture of acetonitrile/water/buffer (75/10/15, v/v/v) delivered at 0.25 mL/min. The buffer consisted of 100 mM ammonium acetate, pH 5. For the quantification of NB-DGJ and miglitol (internal standard), the transitions m/z 220 (Q1) → m/z 158 (Q3) and m/z 208 (Q1) → m/z 146 (Q3) were monitored, respectively. Data reduction was performed with QuanLynx software. PK analysis was performed by WinNonLin using a non-compartmental model.

t½_Lambda_z ([1]; n = 4, plasma): 6.5 h
Cmax ([1]; rat, converted from ng/mL, read-out: Cmax (plasma level) in molar units): 50 µM
Cmax ([1]; rat, n = 4, plasma, read-out: Cmax): 11000 ng/mL
tmax ([1]; rat, n = 4, plasma): 1.3 h
AUC(0-inf) ([1]; rat, n = 4, plasma, non-compartmental, read-out: AUCINF_Obs): 55600 ng·h/mL
Compound: CCCCN1C[C@H](O)[C@@H](O)[C@@H](O)[C@H]1CO [NB-DGJ, N-butyldeoxygalactonojirimycin]
Sperm morphology Abnormal, average (%) (C57BL6J mice; 15 mg/kg oral daily): 51.59%
Sperm morphology Normal, average (%) (C57BL6J mice; 15 mg/kg oral daily): 48.4%
Sperm morphology Abnormal, average (%) (C57BL6J mice; 25 mg/kg oral daily): 62.05%
Sperm morphology Normal, average (%) (C57BL6J mice; 25 mg/kg oral daily): 37.85%
Sperm morphology Abnormal, average (%) (C57BL6J mice; 50 mg/kg oral daily): 88.21%
Sperm morphology Normal, average (%) (C57BL6J mice; 50 mg/kg oral daily): 11.78%
Sperm acrosome morphology (in words) (C57BL6J mice; 15, 25 and 50 mg/kg oral daily): dose-dependent increase in the number of abnormal spermatozoa
